Reference: patent US4226610A, “Herbicidal compounds, preparation thereof and herbicides containing the same” (Meiji Selka Kaisha, Ltd., priority 1978, dated 1980)
Where a name gives a salt, the structure may show the parent alone.

Key:
Japanese bush cranberry = assay: Experiment 3 foliar application to naturally growing shrubs; format: in vivo, Viburnum dilatatum Thunb.; conditions: after 3 months
From the text: (§1) The detail of the assessment made in the following Experiments of the invention was as follows:
(§2) Four months after treatment, evaluation was made for inhibition of reproduction expressed in terms of symbols ranging from (-) to (+++) where (-) means no reproduction, namely complete suppression of reproduction, (±) remarkable suppression of reproduction; (+) considerable suppression of reproduction; (++) medium supprestion of reproduction; and (+++) no suppression of reproduction.
(§3) The compounds of the invention and other compounds listed in Table 5. were diluted to prescribed concentrations and sprayed onto naturally growing shrubs by foliar application in an amount of 150 liter per 10 are.
(§4) 0.1% of octylphenyl polyoxyethanol was added as the surfactant. The killing index (0, no effect; 5, death) after 1 month and 3 months, and the reproduction-inhibiting effect (-, no reproduction; +++, maximum reproduction) after 3 months were determined.

warunasubi = assay: Experiment 1 foliar application to naturally growing weeds; format: in vivo, Solanum carolinensis L.; conditions: 4 months
From the text: as §1, §2
(§5) The compounds of the invention and other compounds for comparison listed in Table 3 were diluted to prescribed concentrations and sprayed to naturally growing weeds by foliar application in an amount of 150 liter per 10 are.
(§6) 0.1% of octylphenyl polyoxyethanol was added as a surfactant.
(§7) The killing index (0, no effect, 5, death) after 21 days, and the reproduction-inhibiting effect (-, no reproduction; +++, maximum reproduction) after 2 months (manna grass and cockspar grass) and 4 months (other weeds) were determined.

kiichigo = assay: Experiment 3 foliar application to naturally growing shrubs; format: in vivo, Rubus palmatsu Thunb. forma coptophyllus Makino; conditions: after 3 months
From the text: as §1, §2, §3, §4

oak = assay: as above; format: in vivo, Quercus serrata Thunb; conditions: after 3 months
From the text: as §1, §2, §3, §4

Japanese prickly ash = assay: as above; format: in vivo, Xanthoxylum piperitum DC.; conditions: after 3 months
From the text: as §1, §2, §3, §4

yabugarashi = assay: Experiment 1 foliar application to naturally growing weeds; format: in vivo, Cayratia japonica Houtt.; conditions: 4 months
From the text: as §1, §2, §5, §6, §7

azumanezasa = assay: as above; format: in vivo, Pleioblastus Chino Makino; conditions: 4 months
From the text: as §1, §2, §5, §6, §7

cockspar grass = assay: as above; format: in vivo, Echinochloa Crusgalli P. Beauv.; conditions: 2 months
From the text: as §1, §2, §5, §6, §7

eulalia = assay: Experiment 2 foliar application in Japanese cypress afforested land; format: in vivo, Miscanthus sinensis Andress.; set-up: key: 0 = no effect, 5 = death; conditions: 0.125%; after 3 months
Procedure: as §1
(§8) The compounds of the invention and other compounds listed in Table 4. were diluted to prescribed concentrations and sprayed to shrubs by foliar application in a Japanese cypress afforested land in an amount of 150 liter per 10 are.
(§9) After 30 days and 3 months, the killing index (0, no effect; 5, death) was determined.
(§10) The heights of plants were 50-70 cm. for Japanese cypress, about 50 cm. for chestnut, 50-90 cm. for miyakozasa, about 100 cm. for eulalia and 70-100 cm. for kumaichigo, respectively.

lace shrub = assay: Experiment 3 foliar application to naturally growing shrubs; format: in vivo, Stephanandra incisa Zabel; conditions: after 3 months
From the text: as §1, §2, §3, §4

torch azalea = assay: as above; format: in vivo, Rhododendoron Kaempferi Planch.; conditions: after 3 months
From the text: as §1, §2, §3, §4

purple nutsedge = assay: Experiment 1 foliar application to naturally growing weeds; format: in vivo, Cyperus rotundus L.; conditions: 4 months
From the text: as §1, §2, §5, §6, §7

manna grass = assay: as above; format: in vivo, Digitaria adsceudes Henr.; conditions: 2 months
From the text: as §1, §2, §5, §6, §7

white clover = assay: as above; format: in vivo, Trifolium repens L.; conditions: for Reproduction-inhibiting effect: 4 months; for Killing index of Upperground parts: 21 days
From the text: as §1, §2, §5, §6, §7

yamazakura = assay: Experiment 3 foliar application to naturally growing shrubs; format: in vivo, Prunus donarium Sieb. var. spontanae Makino; conditions: after 3 months
From the text: as §1, §2, §3, §4

kumaichigo = assay: Experiment 2 foliar application in Japanese cypress afforested land; format: in vivo, Rubus crataegifolius Bunge
Procedure: as §1, §8, §9, §10

chigaya = assay: Experiment 1 foliar application to naturally growing weeds; format: in vivo, Imperata cylindrica Beauv.; conditions: for Reproduction-inhibiting effect: 4 months
From the text: as §1, §2, §5, §6, §7

hedge bindweed = assay: as above; format: in vivo, Calystegis hederacea Wall.; conditions: 4 months
From the text: as §1, §2, §5, §6, §7

water hyacinth = assay: Experiment 5 foliar application to water hyacinths; format: in vivo, Eichhornia crassipes Solms; set-up: key to Killing index: 0 = no effect, 5 = death; conditions: for Reproduction-inhibiting effect: 3 months
From the text: as §1, §2
Water was placed in 20 cm.×30 cm. plastic vessels and a liquid fertilizer was added thereto. Two water hyacinths were floated in each vessel.
0.1 or 0.2% aqueous solutions of each of the compounds of the invention listed in Table 7 were sprayed by foliar application in an amount of 100 liter per 10 are. As a surfactant, 0.1% of octylphenyl polyoxyethanol was added.
The killing index (0, no effect; 5, death) after 21 days and 3 months, and the reproduction-inhibiting effect (-, no reproduction; +++, maximum reproduction) after 3 months were determined.

Compound: CP(=O)(O)CCC(N)C(=O)O (racemic) [DL-2-Amino-4-methylphosphinobutanoic acid monodiethanolammon] [DL-2-Amino-4-methylphosphinobutanoic acid monodiethanolammonium salt]
- Reproduction-inhibiting (Japanese bush cranberry; 0.05%): +++
- Reproduction-inhibiting (Japanese bush cranberry; 0.1%): ++
- Reproduction-inhibiting (Japanese bush cranberry; 0.2%): ++
- Reproduction-inhibiting effect (warunasubi; 0.05%): +++
- Reproduction-inhibiting effect (warunasubi; 0.1%): +++
- Reproduction-inhibiting effect (warunasubi; 0.2%): +
- Reproduction-inhibiting (kiichigo; 0.05%): +++
- Reproduction-inhibiting (kiichigo; 0.1%): ++
- Reproduction-inhibiting (kiichigo; 0.2%): -
- Reproduction-inhibiting (oak; 0.05%): +++
- Reproduction-inhibiting (oak; 0.1%): ++
- Reproduction-inhibiting (oak; 0.2%): -
- Reproduction-inhibiting (Japanese prickly ash; 0.05%): +++
- Reproduction-inhibiting (Japanese prickly ash; 0.1%): ++
- Reproduction-inhibiting (Japanese prickly ash; 0.2%): -
- Reproduction-inhibiting effect (yabugarashi; 0.05%): +++
- Reproduction-inhibiting effect (yabugarashi; 0.1%): +++
- Reproduction-inhibiting effect (yabugarashi; 0.2%): ++
- Reproduction-inhibiting effect (azumanezasa; 0.05%): +++
- Reproduction-inhibiting effect (azumanezasa; 0.1%): +
- Reproduction-inhibiting effect (azumanezasa; 0.2%): -
- Reproduction-inhibiting effect (cockspar grass; 0.05%): +++
- Reproduction-inhibiting effect (cockspar grass; 0.1%): ++
- Reproduction-inhibiting effect (cockspar grass; 0.2%): -
- Killing index (eulalia): 1.5
- Reproduction-inhibiting (lace shrub; 0.05%): +++
- Reproduction-inhibiting (lace shrub; 0.1%): ++
- Reproduction-inhibiting (lace shrub; 0.2%): -
- Reproduction-inhibiting (torch azalea; 0.05%): +++
- Reproduction-inhibiting (torch azalea; 0.1%): ++
- Reproduction-inhibiting (torch azalea; 0.2%): -
- Reproduction-inhibiting effect (purple nutsedge; 0.05%): +++
- Reproduction-inhibiting effect (purple nutsedge; 0.1%): +++
- Reproduction-inhibiting effect (purple nutsedge; 0.2%): +
- Reproduction-inhibiting effect (manna grass; 0.05%): +++
- Reproduction-inhibiting effect (manna grass; 0.1%): ++
- Reproduction-inhibiting effect (manna grass; 0.2%): -
- Reproduction-inhibiting effect (white clover; 0.05%): +++
- Reproduction-inhibiting effect (white clover; 0.1%): +++
- Reproduction-inhibiting effect (white clover; 0.2%): -
- Reproduction-inhibiting (yamazakura; 0.05%): +++
- Reproduction-inhibiting (yamazakura; 0.1%): ++
- Reproduction-inhibiting (yamazakura; 0.2%): -
- Killing index (kumaichigo; 0.125%, after 3 months): 1.5
- Reproduction-inhibiting effect (chigaya; 0.05%): +++
- Killing index of Upperground parts (chigaya; 0.05%, 21 days): 2.5
- Reproduction-inhibiting effect (chigaya; 0.1%): ++
- Reproduction-inhibiting effect (chigaya; 0.2%): -
- Reproduction-inhibiting effect (hedge bindweed; 0.05%): +++
- Reproduction-inhibiting effect (hedge bindweed; 0.1%): +++
- Reproduction-inhibiting effect (hedge bindweed; 0.2%): +++

Compound: C[C@H](NC(=O)[C@H](C)NC(=O)[C@@H](N)CCP(C)(=O)O)C(=O)O [monosodium salt]
- Reproduction-inhibiting (Japanese bush cranberry; 0.05%, monosodium salt): +++
- Reproduction-inhibiting (Japanese bush cranberry; 0.1%, monosodium salt): +
- Reproduction-inhibiting (Japanese bush cranberry; 0.2%): -
- Reproduction-inhibiting effect (warunasubi; 0.05%, monosodium salt): +++
- Reproduction-inhibiting effect (warunasubi; 0.1%, monosodium salt): +++
- Reproduction-inhibiting effect (warunasubi; 0.2%, monosodium salt): +
- Reproduction-inhibiting (kiichigo; 0.05%, monosodium salt): +++
- Reproduction-inhibiting (kiichigo; 0.1%, monosodium salt): +
- Reproduction-inhibiting (kiichigo; 0.2%): -
- Reproduction-inhibiting (oak; 0.05%, monosodium salt): +++
- Reproduction-inhibiting (oak; 0.1%, monosodium salt): ++
- Reproduction-inhibiting (oak; 0.2%): -
- Reproduction-inhibiting (Japanese prickly ash; 0.05%, monosodium salt): +++
- Reproduction-inhibiting (Japanese prickly ash; 0.1%, monosodium salt): +
- Reproduction-inhibiting (Japanese prickly ash; 0.2%): -
- Reproduction-inhibiting effect (yabugarashi; 0.05%, monosodium salt): +++
- Reproduction-inhibiting effect (yabugarashi; 0.1%, monosodium salt): ++
- Reproduction-inhibiting effect (yabugarashi; 0.2%, monosodium salt): ±
- Reproduction-inhibiting effect (azumanezasa; 0.05%, monosodium salt): +++
- Reproduction-inhibiting effect (azumanezasa; 0.1%, monosodium salt): +
- Reproduction-inhibiting effect (azumanezasa; 0.2%): -
- Reproduction-inhibiting effect (cockspar grass; 0.05%, monosodium salt): +++
- Reproduction-inhibiting effect (cockspar grass; 0.1%, monosodium salt): ++
- Reproduction-inhibiting effect (cockspar grass; 0.2%, monosodium salt): ±
- Reproduction-inhibiting (lace shrub; 0.05%, monosodium salt): +++
- Reproduction-inhibiting (lace shrub; 0.1%, monosodium salt): ++
- Reproduction-inhibiting (lace shrub; 0.2%): -
- Reproduction-inhibiting (torch azalea; 0.05%, monosodium salt): +++
- Reproduction-inhibiting (torch azalea; 0.1%, monosodium salt): ++
- Reproduction-inhibiting (torch azalea; 0.2%): -
- Reproduction-inhibiting effect (purple nutsedge; 0.05%, monosodium salt): +++
- Reproduction-inhibiting effect (purple nutsedge; 0.1%, monosodium salt): +++
- Reproduction-inhibiting effect (purple nutsedge; 0.2%, monosodium salt): +
- Reproduction-inhibiting effect (manna grass; 0.05%, monosodium salt): +++
- Reproduction-inhibiting effect (manna grass; 0.1%, monosodium salt): ++
- Reproduction-inhibiting effect (manna grass; 0.2%, monosodium salt): ±
- Reproduction-inhibiting effect (white clover; 0.05%, monosodium salt): +++
- Killing index of Upperground parts (white clover; 0.05%, monosodium salt): 1.5
- Reproduction-inhibiting effect (white clover; 0.1%, monosodium salt): +++
- Killing index of Upperground parts (white clover; 0.1%, monosodium salt): 3.5
- Reproduction-inhibiting effect (white clover; 0.2%, monosodium salt): +
- Reproduction-inhibiting (yamazakura; 0.05%, monosodium salt): +++
- Reproduction-inhibiting (yamazakura; 0.1%, monosodium salt): ++
- Reproduction-inhibiting (yamazakura; 0.2%): -
- Killing index (kumaichigo; 0.25%, after 30 days, monosodium salt): 4.5
- Reproduction-inhibiting effect (chigaya; 0.1%, monosodium salt): ++
- Reproduction-inhibiting effect (chigaya; 0.2%): -
- Reproduction-inhibiting effect (hedge bindweed; 0.05%, monosodium salt): +++
- Reproduction-inhibiting effect (hedge bindweed; 0.1%, monosodium salt): +++
- Reproduction-inhibiting effect (hedge bindweed; 0.2%, monosodium salt): +++
- Reproduction-inhibiting effect (water hyacinth; 0.1%, listed as SF-1293 monosodium salt, monosodium salt): +
- Reproduction-inhibiting effect (water hyacinth; 0.2%): -
- Killing index (water hyacinth; 0.2%, 21 days, listed as SF-1293 monosodium salt, monosodium salt): 4.5
